Data on 21 molecules can be found in patent US20220089568A1 (Janssen Biotech, Inc., priority 2019, published 2022).

The EC50 is the concentration at which the effect is half-maximal. A high value points to a need for much substance.

One assay relates to MOLM-13 cells. Nature of the assay: MOLM-13 Cellular Assay. It counts as cell-based. To be noted: Homo sapiens, 72 hours exposure, cell viability by CellTiter-Glo. Here is the method: The day prior to assay set-up, cells were pelleted, resuspended in fresh media, counted, and cells were plated at 0.4×10^6 cell/mL in a T150 flask. […] Cells were exposed to different concentrations of test compounds at 37° C., 5% CO2 for 72 hours immediately after seeding.
(ATP-based viability assays read luminescence as a measure of living cells.)

In the next assay the target is T1, human DHODH (Homo sapiens, UniProt Q02127).
T1 construct: purchased Proteros PR-0044
Nature of the assay: DHODH Enzymatic Assay. The assay is classed as biochemical. The settings on record: purified human DHODH; DCIP absorbance, end-point mode. The method, then: To detect DHODH enzyme activities, dichloroindophenol (DCIP) is added as the final electron acceptor in the assay. DCIP can accept electrons from the reduced coenzyme Q generated in the assay, or from dihydroorotate (DHO) via FMN by binding presumably to the ubiquinone pocket. […] The assay buffer contained […], pH 7.5, 150 mM NaCl, 0.5 mM EDTA, and 0.1% Triton X-100 in MilliQ water. Substrate consisting of 20 mM DHO, 5 mM CoQ6, and 1 mM DCIP in assay buffer, initiates the reaction. […] Absorbance measurements were obtained using the BMG Phera Star plate-reading spectrophotomer. Purified human DHODH was purchased from Proteros (cat. No. PR-0044). Chemicals were purchased from Sigma-Aldrich, Teknova, and Avanti Polar Lipids. Liquid handling was performed using Labcyte Echo and Formulatrix Tempest.

T1 sequence (Q02127 whole entry): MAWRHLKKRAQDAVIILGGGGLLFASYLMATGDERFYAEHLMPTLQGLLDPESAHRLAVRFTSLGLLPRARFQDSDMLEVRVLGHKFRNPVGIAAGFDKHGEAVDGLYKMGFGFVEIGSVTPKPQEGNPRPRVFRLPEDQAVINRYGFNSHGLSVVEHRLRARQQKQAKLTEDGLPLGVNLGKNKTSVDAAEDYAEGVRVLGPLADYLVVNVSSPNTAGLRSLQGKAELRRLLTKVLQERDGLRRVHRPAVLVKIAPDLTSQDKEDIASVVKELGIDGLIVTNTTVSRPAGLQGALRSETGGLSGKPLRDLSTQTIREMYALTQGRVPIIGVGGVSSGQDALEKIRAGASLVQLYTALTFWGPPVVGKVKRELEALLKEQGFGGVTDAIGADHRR

`CCn1c(CO)nn(-c2nc(O[C@@H](C)C(F)(F)F)c(C(=O)Nc3c(C)ccn(C)c3=O)cc2F)c1=O` [Example 53, N-(1,4-Dimethyl-2-oxo-2,3-dihydro-1l4-pyridin-3-yl)-6-(4-ethyl-3-(hydroxymethyl)-5-oxo-4,5-dihydro-1H-1,2,4-triazol-1-yl)-5-fluoro-2-(((S)-1,1,1-trifluoropropan-2-yl)oxy)nicotinamide]: the EC50 in the assay on MOLM-13 cells is over 100 nM; on human DHODH it was 144 nM.
For the molecule `CCn1c(CF)nn(-c2nc(O[C@@H](C)C(F)(F)F)c(C(=O)Nc3c(C)ccnc3Cl)cc2F)c1=O` [Example 87, N-(2-Chloro-4-methyl-3-pyridyl)-6-[4-ethyl-3-(fluoromethyl)-5-oxo-1,2,4-triazol-1-yl]-5-fluoro-2-[(1S)-2,2,2-trifluoro-1-methyl-ethoxy]pyridine-3-carboxamide], the EC50 with MOLM-13 cells turned out to be 1.14 nM; at human DHODH, 0.448 nM.
Consider `CCn1c(CO)nn(-c2nc(O[C@@H](C)C(F)(F)F)c(C(=O)Nc3c(C)ccnc3C(F)F)cc2F)c1=O` [Example 13, (S)-N-(2-(Difluoromethyl)-4-methylpyridin-3-yl)-6-(4-ethyl-3-(hydroxymethyl)-5-oxo-4,5-dihydro-1H-1,2,4-triazol-1-yl)-5-fluoro-2-((1,1,1-trifluoropropan-2-yl)oxy)nicotinamide], for which the results for the EC50 in the assay on MOLM-13 cells and on human DHODH were 3.3 nM and 2.2 nM, respectively.
Taken in the same sequence, the figures for `CCn1c(CO)nn(-c2nc(OC(C)C)c(C(=O)Nc3c(C)cnc(OC)c3Cl)cc2F)c1=O` [Example 88, N-(3-Chloro-2-methoxy-5-methyl-4-pyridyl)-6-[4-ethyl-3-(hydroxymethyl)-5-oxo-1,2,4-triazol-1-yl]-5-fluoro-2-isopropoxy-pyridine-3-carboxamide] were 2.34 nM and 1.16 nM.
Regarding `CCn1c(CO)nn(-c2nc(O[C@@H](C)C(F)(F)F)c(C(=O)Nc3c(C)cc(Cl)nc3OC)cc2F)c1=O` [Example 113, N-(6-Chloro-2-methoxy-4-methyl-3-pyridyl)-6-[4-ethyl-3-(hydroxymethyl)-5-oxo-1,2,4-triazol-1-yl]-5-fluoro-2-[(1S)-2,2,2-trifluoro-1-methyl-ethoxy]pyridine-3-carboxamide], the figures for the EC50 in the assay with MOLM-13 cells and at human DHODH were 0.416 nM and 1.07 nM, respectively.
`CCn1c(CO)nn(-c2nc(O[C@@H](C)C(F)(F)F)c(C(=O)Nc3ccnnc3Cl)cc2F)c1=O` [Example 16, (S)-N-(3-Chloropyridazin-4-yl)-6-(4-ethyl-3-(hydroxymethyl)-5-oxo-4,5-dihydro-1H-1,2,4-triazol-1-yl)-5-fluoro-2-((1,1,1-trifluoropropan-2-yl)oxy)nicotinamide]: the EC50 is over 1000 nM in the assay with MOLM-13 cells and 734 nM on human DHODH.
In the case of `CCn1c(CO)nn(-c2nc(O[C@@H](C)C(F)(F)F)c(C(=O)Nc3cnccc3Cl)cc2F)c1=O` [Example 27, (S)-N-(4-Chloropyridin-3-yl)-6-(4-ethyl-3-(hydroxymethyl)-5-oxo-4,5-dihydro-1H-1,2,4-triazol-1-yl)-5-fluoro-2-((1,1,1-trifluoropropan-2-yl)oxy)nicotinamide], the EC50 with MOLM-13 cells is 7.7 nM; at human DHODH it was 4.7 nM.
For `CCOc1ncc(F)c(NC(=O)c2cc(F)c(-n3nc(CO)n(CC)c3=O)nc2O[C@@H](C)C(F)(F)F)n1` [Example 70, (S)-N-(2-Ethoxy-5-fluoropyrimidin-4-yl)-6-(4-ethyl-3-(hydroxymethyl)-5-oxo-4,5-dihydro-1H-1,2,4-triazol-1-yl)-5-fluoro-2-((1,1,1-trifluoropropan-2-yl)oxy)nicotinamide], in that order: over 100 nM and 489 nM.
Take `CCn1c(CF)nn(-c2nc(O[C@@H](C)C(F)(F)F)c(C(=O)Nc3c(C)n[nH]c3Cl)cc2F)c1=O` [Example 96, N-(5-Chloro-3-methyl-1H-pyrazol-4-yl)-6-[4-ethyl-3-(fluoromethyl)-5-oxo-1,2,4-triazol-1-yl]-5-fluoro-2-[(1S)-2,2,2-trifluoro-1-methyl-ethoxy]pyridine-3-carboxamide]: the EC50 in the assay with MOLM-13 cells was found to be 0.32 nM; on human DHODH, 0.382 nM.
Taken in the same sequence, the figures for `CCn1c(CO)nn(-c2nc(O[C@@H](C)C(F)(F)F)c(C(=O)Nc3c[nH]nc3C(F)(F)F)cc2F)c1=O` [Example 95, 6-[4-Ethyl-3-(hydroxymethyl)-5-oxo-1,2,4-triazol-1-yl]-5-fluoro-2-[(1S)-2,2,2-trifluoro-1-methyl-ethoxy]-N-[3-(trifluoromethyl)-1H-pyrazol-4-yl]pyridine-3-carboxamide] were 1.23 nM and 2.09 nM.
In the case of `CCn1c(CO)nn(-c2nc(O[C@@H](C)C(F)(F)F)c(C(=O)Nc3c(OC)ccnc3Cl)cc2F)c1=O` [Example 44, (S)-N-(2-Chloro-4-methoxypyridin-3-yl)-6-(4-ethyl-3-(hydroxymethyl)-5-oxo-4,5-dihydro-1H-1,2,4-triazol-1-yl)-5-fluoro-2-((1,1,1-trifluoropropan-2-yl)oxy)nicotinamide], the figures for the EC50 in the assay on MOLM-13 cells and on human DHODH were 10.7 nM and 3.9 nM, respectively.
Taken in the same sequence, the figures for `CCn1c(CO)nn(-c2nc(O[C@@H](C)C(F)(F)F)c(C(=O)Nc3cc(C#N)ccc3Cl)cc2F)c1=O` [Example 74, (S)-N-(2-Chloro-5-cyanophenyl)-6-(4-ethyl-3-(hydroxymethyl)-5-oxo-4,5-dihydro-1H-1,2,4-triazol-1-yl)-5-fluoro-2-((1,1,1-trifluoropropan-2-yl)oxy)nicotinamide] were 13 nM and 1.7 nM.
`CCn1c(CO)nn(-c2nc(O[C@@H](C)C(F)(F)F)c(C(=O)Nc3c(C)cnc(OC)c3C)cc2F)c1=O` [Example 85, 6-[4-Ethyl-3-(hydroxymethyl)-5-oxo-1,2,4-triazol-1-yl]-5-fluoro-N-(2-methoxy-3,5-dimethyl-4-pyridyl)-2-[(1S)-2,2,2-trifluoro-1-methyl-ethoxy]pyridine-3-carboxamide]: the EC50 with MOLM-13 cells was determined as 1.1 nM; at human DHODH, 0.91 nM.
Regarding `CCn1c(CO)nn(-c2nc(O[C@@H](C)C(F)(F)F)c(C(=O)Nc3c(Cl)ncc(C)c3C)cc2F)c1=O` [Example 102, N-(2-Chloro-4,5-dimethyl-3-pyridyl)-6-[4-ethyl-3-(hydroxymethyl)-5-oxo-1,2,4-triazol-1-yl]-5-fluoro-2-[(1S)-2,2,2-trifluoro-1-methyl-ethoxy]pyridine-3-carboxamide], the EC50 turned out to be 1.39 nM in the assay on MOLM-13 cells and 20.1 nM at human DHODH.
Take `CCn1c(CCl)nn(-c2nc(O[C@@H](C)C(F)(F)F)c(C(=O)Nc3c(F)cccc3Cl)cc2F)c1=O` [Example 6, (S)-N-(2-Chloro-6-fluorophenyl)-6-(3-(chloromethyl)-4-ethyl-5-oxo-4,5-dihydro-1H-1,2,4-triazol-1-yl)-5-fluoro-2-((1,1,1-trifluoropropan-2-yl)oxy)nicotinamide]: the EC50 with MOLM-13 cells is 1.47 nM; on human DHODH, 0.369 nM.
Taken in the same sequence, the figures for `CCn1c(CO)nn(-c2nc(O[C@@H](C)C(F)(F)F)c(C(=O)Nc3c[nH]nc3C)cc2F)c1=O` [Example 57, (S)-6-(4-Ethyl-3-(hydroxymethyl)-5-oxo-4,5-dihydro-1H-1,2,4-triazol-1-yl)-5-fluoro-N-(3-methyl-1H-pyrazol-4-yl)-2-((1,1,1-trifluoropropan-2-yl)oxy)nicotinamide] were 20.2 nM and 1.7 nM.
For `CCn1c(CO)nn(-c2nc(O[C@@H](C)C(F)(F)F)c(C(=O)Nc3cc(C)cnc3OC)cc2F)c1=O` [Example 41, (S)-6-(4-Ethyl-3-(hydroxymethyl)-5-oxo-4,5-dihydro-1H-1,2,4-triazol-1-yl)-5-fluoro-N-(2-methoxy-5-methylpyridin-3-yl)-2-((1,1,1-trifluoropropan-2-yl)oxy)nicotinamide], in that order: 52.4 nM and 17.4 nM.
For the molecule `CCn1c(CO)nn(-c2nc(O[C@@H](C)C(F)(F)F)c(C(=O)Nc3c(C)cc(C)nc3Cl)cc2F)c1=O` [Example 72, (S)-N-(2-Chloro-4,6-dimethylpyridin-3-yl)-6-(4-ethyl-3-(hydroxymethyl)-5-oxo-4,5-dihydro-1H-1,2,4-triazol-1-yl)-5-fluoro-2-((1,1,1-trifluoropropan-2-yl)oxy)nicotinamide], the EC50 came to 1.4 nM with MOLM-13 cells and 0.895 nM at human DHODH.
For `CCn1c(CO)nn(-c2nc(O[C@@H](C)C(F)(F)F)c(C(=O)Nc3c(F)ccnc3OC)cc2F)c1=O` [Example 125, 6-[4-Ethyl-3-(hydroxymethyl)-5-oxo-1,2,4-triazol-1-yl]-5-fluoro-N-(4-fluoro-2-methoxy-3-pyridyl)-2-[(1S)-2,2,2-trifluoro-1-methyl-ethoxy]pyridine-3-carboxamide], in that order: 1.11 nM and 3.69 nM.
Turning to `CCn1c(CO)nn(-c2nc(O[C@@H](C)C(F)(F)F)c(C(=O)Nc3cnc(OC)cc3Cl)cc2F)c1=O` [Example 50, (S)-N-(4-Chloro-6-methoxypyridin-3-yl)-6-(4-ethyl-3-(hydroxymethyl)-5-oxo-4,5-dihydro-1H-1,2,4-triazol-1-yl)-5-fluoro-2-((1,1,1-trifluoropropan-2-yl)oxy)nicotinamide], the concentration for a half-maximal effect (EC50) amounted to 1.83 nM with MOLM-13 cells and 0.852 nM at human DHODH.
Taken in the same sequence, the figures for `CCn1c(CO)nn(-c2nc(O[C@@H](C)C(F)(F)F)c(C(=O)Nc3cc(Cl)cnc3OC)cc2F)c1=O` [Example 33, (S)-N-(5-Chloro-2-methoxypyridin-3-yl)-6-(4-ethyl-3-(hydroxymethyl)-5-oxo-4,5-dihydro-1H-1,2,4-triazol-1-yl)-5-fluoro-2-((1,1,1-trifluoropropan-2-yl)oxy)nicotinamide] were over 100 nM and 52.5 nM.
